Where “and” joins values, the source holds several entries; their conditions need not be identical. Identical values can stand only once.
What was measured:
[1] = Antropyloroduodenal (APD) pressures by manometry during intraduodenal infusion; format: in vivo, human
Excerpt: Subjects attended the laboratory at 0830 after fasting from 2200 the previous night from both solids and liquids. They were intubated with a 17-channel manometric catheter (Dentsleeve; Adelaide, South Australia, Australia) that was inserted through an anesthetized nostril and allowed to pass through the stomach and into the duodenum by peristalsis. The manometric catheter, which consisted of 16 sideholes spaced at 1.5-cm intervals, measures pressures in the antrum, pylorus, and duodenum. Six side holes (channels 1-6) were positioned in the antrum, a 4.5-cm sleeve sensor (channel 7), with two channels present on the back of the sleeve (channels 8 and 9), designed to measure pressure waves occurring over the entire pyloric region, were positioned across the pylorus, and seven channels were positioned in the duodenum (channels 10-16). An additional channel, used for intraduodenal infusions, was positioned 11.75 cm distal to the end of the sleeve sensor. The correct positioning of the catheter, so the sleeve sensor straddled the pylorus, was maintained by continuous measurement of the transmucosal potential difference (TMPD) between the most distal antral channel (channel 6; approximately −40 mV) and the most proximal duodenal channel (channel 10; ˜0 mV). For this purpose, an intravenous cannula filled with sterile saline was placed subcutaneously in the left forearm and used as a reference electrode. All manometric channels were perfused with degassed, distilled water except for the two TMPD channels, which were perfused with degassed 0.9% saline at 0.15 ml/min. An intravenous cannula was also placed into a right forearm vein for blood sampling to measure plasma CCK and GLP-1 concentrations.
Once the catheter was positioned correctly, fasting motility was monitored until the occurrence of phase III of the interdigestive migrating motor complex (MMC). Immediately after the cessation of phase III activity [at time t=−15 min], a baseline venous blood sample was taken, and a visual analog scale questionnaire (VAS) (see Measurements), assessing appetite-related sensations, was administered. At t=0 min (i.e., during phase I of the MMC), the duodenal infusion of 1) C12, 2) C10, or 3) control solution was commenced and continued for 90 min. APD pressures were monitored throughout the infusion period; blood samples were taken, and the VAS administered every 15 min from t=0 min until t=90 min. At t=90 min, the infusion was terminated, and the subject was immediately extubated and offered a cold buffet-style meal, the composition of which is provided in Table 1. The amount of food offered was in excess of what the subject was expected to consume. The subject was given 30 min (i.e., t=90 min to t=120 min) to consume the meal and instructed to eat until comfortably full. After ingestion of the meal, the subject was monitored for a further 30 min, a further VAS was completed, and blood samples were taken at t=120 and 150 min. The intravenous cannula was then removed, and the subject was allowed to leave the laboratory.
APD pressures. Manometric pressures were digitized, recorded on a computer-based system (PowerMac 7100/75, Apple Computers; Cupertino, Calif.) running commercially available software (HAD, Associate Prof. G S Hebbard, Melbourne, Australia) written in LabView 3.1.1 (National Instruments), and stored for subsequent analysis. APD pressures were analysed for 1) number and amplitude of isolated pyloric pressure waves (IPPWs) and pressure waves (PWs) in the antrum and duodenum and 2) number and length of PW sequences (PWSs) in the duodenum using custom-written software (Gastrointestinal Motility Unit; Utrecht, The Netherlands) modified to our requirements. […]

[2] = Tolerability of intraduodenal fatty acid infusion (pilot study and randomized study); format: in vivo, human
Protocol: Fatty acid solutions were prepared using 5.3 g of commercially available food grade saturated free fatty acids, lauric (C12:0) and decanoic (C10:0) acid (Sigma-Aldrich; Milwaukee, Wis.). C12 was dissolved in 0.89 g NaOH (Sigma-Aldrich; St. Louis, Mo.) and distilled water to a total volume of 250 ml. C12 was maintained in solution by heating it to 37° C., with a resulting pH of 8.2. C10 was also dissolved in NaOH (1.21 g), and the pH of the C10 and control (distilled water) solutions was adjusted to 8.2 by the addition of NaOH. All solutions were prepared on the morning of the study and infused at 37° C. […] We chose to infuse the fatty acid and control solutions intraduodenally to ensure uniformity of doses across subjects and study days.
However, during the C12 infusion, the first subject tested reported severe nausea and only tolerated the infusion for 30 min. A second subject, who again reported severe nausea, tolerated the infusion for 60 min.

[3] = at similar concentrations; cited from earlier work
CCK secretion = settings: gastric infusion, humans; cited from earlier work
[4] = 90 min infusion, compared with control

## CCCCCCCCCCCC(=O)O [C12, lauric acid]
[1]; [4]
  basal pyloric pressure (tone): increased basal pyloric pressure
  number of antral PWs: decreased the number of antral PWs compared with control
  number of duodenal PWs: decreased the number of duodenal PWs
[1]; C12: 0-15, 15-30 and 30-45 min, C10: 0-15 min
  number of IPPWs compared with control: increased the number of IPPWs
[1]; C12 infusion
  length of antegrade peristalsis in the duodenum: did not abolish but did shorten
[1]; C12 infusion 0.375 kcal/min
  onset of gastrointestinal effects: ~15 min
[1]; between 0-15 and 15-30 min
  amplitude of IPPWs compared with control: increased the amplitude of IPPWs compared with control
[1]; between 15-30 and 30-45 min
  number of IPPWs compared with C10: increased the number of IPPWs
[1]; between 60 and 75 min
  amplitude of IPPWs compared with control: decreased the amplitude of IPPWs
[1]; between 75 and 90 min
  amplitude of IPPWs compared with C10: decreased the amplitude of IPPWs
[1]; compared with C10
  number of duodenal PWSs travelling over three channels (3 to <4.5 cm): decreased the number of waves that travelled over three channels compared with C10
[1]; compared with both C10 and control infusions, trend P=0.080
  amplitude of antral pressures: tended to be lower
[1]; compared with control
  number of duodenal PWSs travelling over six channels (7.5 to <9 cm): decreased the number of waves that travelled over six channels compared with control
  number of duodenal PWSs travelling over three channels (3 to <4.5 cm): no difference between C12 or C10 and control
  number of duodenal PWSs travelling over two channels (1.5 to <3 cm): decreased the number of waves that travelled over two channels compared with control
  number of waves that travelled over nine channels: decreased the number of waves that travelled over nine channels
[1]; intraduodenal infusion 0.375 kcal/min
  motor pattern on visual inspection of pressure traces: antral and duodenal PWs were inhibited and pyloric pressures stimulated
[2]; pilot study, 0.75 kcal/min (n=1)
  time the infusion was tolerated: ~60 min
[2]; pilot study, 1 kcal/min (n=1)
  time the infusion was tolerated: ~60 min
[2]; pilot study, 1 kcal/min and 0.75 kcal/min
  adverse effect limiting the infusion: severe nausea and vomiting
[2]; pilot study, 1.5 kcal/min
  adverse effect limiting the infusion: severe nausea
[2]; pilot study, 1.5 kcal/min, individual subjects
  time the infusion was tolerated: 30 min and 60 min
[2]; randomized study, 0.375 kcal/min, one subject with severe nausea
  time the infusion was tolerated: 30 min
[3]
  cytotoxicity relative to C18:1: half as cytotoxic as C18:1
CCK secretion
  stimulation of CCK secretion: reported to stimulate CCK secretion
